Source: PubChem BioAssay AID2060883 (Molecular Pharmacology Branch, DTP, NCI, 2025)

System: 843782-103-R-J1-PDC complex spheroid viability
Experiment: Anticancer human tumor 843782-103-R-J1-PDC patient-derived lung adenocarcinoma cell line growth inhibition [RAS]
Conditions: for IC50: curve of first compound; for viability, T/C: stronger effect = lower value
In short: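 Multi-cell-type spheroids: tumor cells plus HUVEC endothelial cells and mesenchymal stem cells. RAS-pathway inhibitors were combined with targeted agents, each dosed in half-log steps down from clinical Cmax, or from 10 microM when Cmax was unknown.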
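Also: viability read after seven days of compound exposure.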

C[C@@H](NC(=O)c1ncnc(N)c1Cl)c1ncc(C(=O)Nc2cc(C(F)(F)F)c(Cl)cn2)s1 + CCn1c(-c2cccnc2C(C)OC)c2c3cc(ccc31)N1CCOC(CC(NC(=O)C(C(C)C)N(C)C(=O)C3(F)CCN(C(=O)C#CC(C)(C)N(C)C)CC3)C(=O)N3CCCC(N3)C(=O)OCC(C)(C)C2)C1
IC50 (second compound 0.000949 µM): > 10000 nM
IC50 (second compound 0.003 µM): > 10000 nM
IC50 (second compound 0.00949 µM): > 10000 nM
IC50 (second compound 0.03 µM): > 10000 nM
IC50 (second compound 0.0949 µM): > 10000 nM
IC50 (second compound 0.3 µM): > 10000 nM
viability, T/C (second compound 0.000949 µM, first compound 0.0316 µM): 83.6%
viability, T/C (second compound 0.000949 µM, first compound 0.1 µM): 84.5%
viability, T/C (second compound 0.000949 µM, first compound 0.316 µM): 81.7%
viability, T/C (second compound 0.000949 µM, first compound 1 µM): 79.2%
viability, T/C (second compound 0.000949 µM, first compound 3.16 µM): 78.3%
viability, T/C (second compound 0.000949 µM, first compound 10 µM): 79.2%
viability, T/C (second compound 0.003 µM, first compound 0.0316 µM): 77.5%
viability, T/C (second compound 0.003 µM, first compound 0.1 µM): 80.8%
viability, T/C (second compound 0.003 µM, first compound 0.316 µM): 80.2%
viability, T/C (second compound 0.003 µM, first compound 1 µM): 75.2%
viability, T/C (second compound 0.003 µM, first compound 3.16 µM): 89.1%
viability, T/C (second compound 0.003 µM, first compound 10 µM): 82.1%
viability, T/C (second compound 0.00949 µM, first compound 0.0316 µM): 76.6%
viability, T/C (second compound 0.00949 µM, first compound 0.1 µM): 88.9%
viability, T/C (second compound 0.00949 µM, first compound 0.316 µM): 84.4%
viability, T/C (second compound 0.00949 µM, first compound 1 µM): 80.3%
viability, T/C (second compound 0.00949 µM, first compound 3.16 µM): 78.6%
viability, T/C (second compound 0.00949 µM, first compound 10 µM): 77.5%
viability, T/C (second compound 0.03 µM, first compound 0.0316 µM): 88.5%
viability, T/C (second compound 0.03 µM, first compound 0.1 µM): 83.4%
viability, T/C (second compound 0.03 µM, first compound 0.316 µM): 81.4%
viability, T/C (second compound 0.03 µM, first compound 1 µM): 79.7%
viability, T/C (second compound 0.03 µM, first compound 3.16 µM): 95.9%
viability, T/C (second compound 0.03 µM, first compound 10 µM): 68.2%
viability, T/C (second compound 0.0949 µM, first compound 0.0316 µM): 81.2%
viability, T/C (second compound 0.0949 µM, first compound 0.1 µM): 86.1%
viability, T/C (second compound 0.0949 µM, first compound 0.316 µM): 81.5%
viability, T/C (second compound 0.0949 µM, first compound 1 µM): 79%
viability, T/C (second compound 0.0949 µM, first compound 3.16 µM): 88.8%
viability, T/C (second compound 0.0949 µM, first compound 10 µM): 75.3%
viability, T/C (second compound 0.3 µM, first compound 0.0316 µM): 75.7%
viability, T/C (second compound 0.3 µM, first compound 0.1 µM): 82.7%
viability, T/C (second compound 0.3 µM, first compound 0.316 µM): 77.9%
viability, T/C (second compound 0.3 µM, first compound 1 µM): 75.4%
viability, T/C (second compound 0.3 µM, first compound 3.16 µM): 80.1%
viability, T/C (second compound 0.3 µM, first compound 10 µM): 76.7%

CC1(C)CCC(Nc2ncc(C(F)(F)F)c(-c3c[nH]c4c(P(C)(C)=O)c(C#N)ccc34)n2)CN1 (centres undefined) + CCn1c(-c2cc(N3CCN(C)CC3)cnc2C(C)OC)c2c3cc(ccc31)-c1csc(n1)CC(NC(=O)C1CC1C)C(=O)N1CCCC(N1)C(=O)OCC(C)(C)C2
IC50 (second compound 0.000949 µM): 5.42 nM
IC50 (second compound 0.003 µM): 2.24 nM
IC50 (second compound 0.00949 µM): < 0.949 nM
IC50 (second compound 0.03 µM): < 0.949 nM
IC50 (second compound 0.0949 µM): < 0.949 nM
IC50 (second compound 0.3 µM): < 0.949 nM
viability, T/C (second compound 0.000949 µM, first compound 0.000949 µM): 72.5%
viability, T/C (second compound 0.000949 µM, first compound 0.003 µM): 68.5%
viability, T/C (second compound 0.000949 µM, first compound 0.00949 µM): 32.6%
viability, T/C (second compound 0.000949 µM, first compound 0.03 µM): 14.2%
viability, T/C (second compound 0.000949 µM, first compound 0.0949 µM): 12%
viability, T/C (second compound 0.000949 µM, first compound 0.3 µM): 11.8%
viability, T/C (second compound 0.003 µM, first compound 0.000949 µM): 60.5%
viability, T/C (second compound 0.003 µM, first compound 0.003 µM): 46.6%
viability, T/C (second compound 0.003 µM, first compound 0.00949 µM): 22.8%
viability, T/C (second compound 0.003 µM, first compound 0.03 µM): 14.1%
viability, T/C (second compound 0.003 µM, first compound 0.0949 µM): 11.1%
viability, T/C (second compound 0.003 µM, first compound 0.3 µM): 11%
viability, T/C (second compound 0.00949 µM, first compound 0.000949 µM): 39.2%
viability, T/C (second compound 0.00949 µM, first compound 0.003 µM): 29.3%
viability, T/C (second compound 0.00949 µM, first compound 0.00949 µM): 18.7%
viability, T/C (second compound 0.00949 µM, first compound 0.03 µM): 10.5%
viability, T/C (second compound 0.00949 µM, first compound 0.0949 µM): 12.1%
viability, T/C (second compound 0.00949 µM, first compound 0.3 µM): 10.9%
viability, T/C (second compound 0.03 µM, first compound 0.000949 µM): 20.1%
viability, T/C (second compound 0.03 µM, first compound 0.003 µM): 21.7%
viability, T/C (second compound 0.03 µM, first compound 0.00949 µM): 14.5%
viability, T/C (second compound 0.03 µM, first compound 0.03 µM): 12.2%
viability, T/C (second compound 0.03 µM, first compound 0.0949 µM): 10.5%
viability, T/C (second compound 0.03 µM, first compound 0.3 µM): 9.54%
viability, T/C (second compound 0.0949 µM, first compound 0.000949 µM): 18.7%
viability, T/C (second compound 0.0949 µM, first compound 0.003 µM): 18.2%
viability, T/C (second compound 0.0949 µM, first compound 0.00949 µM): 14.1%
viability, T/C (second compound 0.0949 µM, first compound 0.03 µM): 12.2%
viability, T/C (second compound 0.0949 µM, first compound 0.0949 µM): 10.3%
viability, T/C (second compound 0.0949 µM, first compound 0.3 µM): 10.3%
viability, T/C (second compound 0.3 µM, first compound 0.000949 µM): 14.5%
viability, T/C (second compound 0.3 µM, first compound 0.003 µM): 14.3%
viability, T/C (second compound 0.3 µM, first compound 0.00949 µM): 11.9%
viability, T/C (second compound 0.3 µM, first compound 0.03 µM): 11.7%
viability, T/C (second compound 0.3 µM, first compound 0.0949 µM): 11.5%
viability, T/C (second compound 0.3 µM, first compound 0.3 µM): 10.1%
